“And” between values parts separate entries of the source, which are not always exact repeats. Identical values can stand only once. Like-named read-outs stand apart in the source and are kept apart here.
Assays:
[1] = tested on: L. donovani axenic amastigotes; assay: In vitro anti-leishmania activity (IC50 vs. L. donovani axenic amastigotes); type: cell-based; details: Leishmania donovani
[2] = tested on: Trypanosoma brucei rhodesiense; assay: Anti-protozoan data: T.b.r. IC50; type: cell-based; details: read-out: T.b.r. IC50
[3] = tested on: Trypanosoma cruzi; assay: Anti-protozoan data: T. cruzi IC50; type: cell-based; details: read-out: T. cruzi IC50
[4] = tested on: Plasmodium falciparum; assay: Anti-protozoan data: P. falcip. IC50; type: cell-based; details: read-out: P. falcip. IC50
[5] = tested on: Mycobacterium tuberculosis; assay: Compounds tested against Mycobacterium tuberculosis (MIC90); type: cell-based
[6] = tested on: Candida albicans; assay: Anti-fungal data: Candida albicans; type: cell-based; details: for MFC / MIC80: strain A39; for MIC: strain A39, read-out: Candida albicans (A39) MIC100
[7] = tested on: Aspergillus fumigatus; assay: Anti-fungal data: Aspergillus fumigatus; type: cell-based; details: for MIC: strain DUMC 168.95, read-out: Aspergillus. Fumigatus (DUMC 168.95) MIC100
[8] = in vitro
[9] = Tables VI(a), VI(c), read-out: Leishmania donovani IC50
[10] = axenic amastigotes, Tables I-V, read-out: IC50 vs. L. donovani
[11] = Table VII(b), read-out: M. tb MIC90

| Structure (SMILES) | IC50 [1, 9] [µM] | IC50 ([2]; Tables VI(a), VI(c)) [µM] | IC50 ([3]; Tables VI(a), VI(c)) [µM] | IC50 ([4]; Tables VI(a), VI(c)) [µM] | MIC90 ([5]; read-out: M. tb. MIC90) | MFC [6] [µg/mL] | MIC80 [6] [µg/mL] | MIC [6] [µg/mL] | MIC80 ([7]; strain DUMC 168.95) [µg/mL] | MIC [7] [µg/mL] | melting point [°C] | IC50 [8] [µM] | MFC ([7]; strain DUMC 168.95) [µg/mL] | IC50 [1, 10] [µM] | IC50 ([1]; read-out: L. Donovani IC50) [µM] | IC50 [2] [µM] | IC50 [3] [µM] | IC50 [4] [µM] | MIC90 [5, 11] |
| --- | --- | --- | --- | --- | --- | --- | --- | --- | --- | --- | --- | --- | --- | --- | --- | --- | --- | --- | --- |
| CC(C)NC(=N)c1ccc(OCCCOc2ccc(-c3cc4cc(C(=N)NC(C)C)ccc4o3)cc2)cc1.Cl.Cl [Compound 45, 2-(4-(3-(4-(N-Isopropylcarbamimidoyl)phenoxy)propoxy)phenyl)-N-isopropylbenzofuran-5-carboxamidine dihydrochloride] | 1.56 ± 0.58 | 0.0409 | 70.4 | 0.0418 | 1.12 µg/mL and 1.86 µM | 10 | 10 | 10 | 100 | > 100 | 301 to 302 | 45.6 |  |  |  |  |  |  |  |
| Cl.Cl.c1cc(C2=NCCN2)ccc1OCCCCCOc1ccc(-c2cc3cc(C4=NCCN4)ccc3o2)cc1 [Compound 52, 2-(2-(4-(5-(4-(4,5-Dihydro-1H-imidazol-2-yl)phenoxy)pentyloxy)phenyl)benzofuran-5-yl)-4,5-dihydro-1H-imidazole dihydrochloride] | 39.4 ± 7.35 | 0.338 | 2.27 | 0.06 | 10.1 µg/mL and 16.9 µM | 10 | 10 | 10 | 10 | 100 | 258 to 261 | 0.87 | > 100 |  |  |  |  |  |  |
| Cl.Cl.N=C(N)c1ccc(OCCCOc2cccc(-c3cc4ccc(C(=N)N)cc4o3)c2)cc1 [Compound 56, 2-(3-(3-(4-Carbamimidoylphenoxy)propoxy)phenyl)benzofuran-6-carboxamidine dihydrochloride] | 11.2 ± 0.28 | 0.327 | 11.1 | 0.084 | 1.02 µg/mL and 1.93 µM |  |  |  |  |  | 196 to 200 | 19.8 |  | 11.2 ± 0.28 |  |  |  |  |  |
| Cl.Cl.c1cc(C2=NCCN2)ccc1OCCCCCCOc1ccc(-c2cc3ccc(C4=NCCN4)cc3o2)cc1 [Compound 79, 2-(2-(4-(6-(4-(4,5-Dihydro-1H-imidazol-2-yl)phenoxy)hexyloxy)phenyl)benzofuran-6-yl)-4,5-dihydro-1H-imidazole dihydrochloride] | 15.3 ± 1.72 | 0.224 | 2.15 | 0.0316 | 2.14 µg/mL and 3.51 µM |  |  |  |  |  | 265 to 269 | 3.44 |  | 15.3 ± 1.72 |  |  |  |  |  |
| N=C(N)c1cccc(-c2cc3cc(C(=N)N)ccc3o2)c1 [Compound 166, 2-(3-carbamimidoylphenyl)benzofuran-5-carboxamidine] |  |  |  |  |  |  |  |  |  |  |  | 21.2 |  | 5.82 ± 0.06 | 5.82 ± 0.06 | 0.0241 | 23.4 | 0.0191 | 11.9 µg/mL and 31.6 µM |
| CC(C)NC(=N)c1cccc(-c2cc3cc(C(=N)NC(C)C)ccc3o2)c1 [Compound 167, 2-(3-(N-isopropylcarbamimidoyl)phenyl)-N-isopropylbenzofuran-5-carboxamidine] |  |  |  |  |  |  |  |  |  |  |  | > 199 |  | 13.4 ± 0.64 | 13.4 ± 0.64 | 0.473 | > 199 | 0.331 | > 57.8 µg/mL and > 128 µM |
| c1cc(C2=NCCN2)cc(-c2cc3cc(C4=NCCN4)ccc3o2)c1 [Compound 168, 2-(3-(5-(4,5-dihydro-1H-imidazol-2-yl)benzofuran-2-yl)phenyl)-4,5-dihydro-1H-imidazole] |  |  |  |  |  |  |  |  |  |  |  | 33.9 |  | 23.7 ± 0.17 | 23.7 ± 0.17 | 0.0776 | 39.6 | 0.0758 | 10.8 µg/mL and 25.7 µM |
| CONC(=N)c1ccc2oc(CCCCCc3cc4cc(C(=N)NOC)ccc4o3)cc2c1 [Compound 193, 2-(5-(5-(N-Methoxycarbamimidoyl)benzofuran-2-yl)pentyl)-N-methoxybenzofuran-5-carboxamidine] | > 100 | > 18.6 | 19.1 | > 1.86 | 4.25 µg/mL and 7.88 µM |  |  |  |  |  |  | 35.6 |  |  |  |  |  |  |  |
